Experimental data: US12594339B2, “Lipid prodrugs of JAK inhibitors and uses thereof” (Seaport Therapeutics, Inc., priority 2019, dated 2026)

Assays:
[1] = Lymphatic transport assay in mesenteric lymph-duct cannulated rats; type: in vivo, rat; settings: total tofacitinib related compound (lymph hydrolysed before assay), intraduodenal infusion, anaesthetised mesenteric lymph-duct cannulated rats, lymph collected up to 8 h
Procedure: In order to assess the lymphatic transport of disclosed lipid prodrugs in rats, the mesenteric lymph ducts of the rats used in this study were cannulated to allow continual collection of mesenteric lymph. Lipid formulations containing the compound of interest were then administered to the animals, lymph was collected, and drug concentrations in the lymph samples were quantified.
Lipid-based formulations of the compounds of the invention or control compounds were prepared as previously described (Trevaskis, N. L. et al., Pharmaceutical Research, 2005, 22(11), 1863-1870, WO 2016/023082, and WO 2017/041139, hereby incorporated by reference).
In brief, either 1 or 2 mg of test prodrug, 40 mg oleic acid and 25 mg Tween 80 were mixed in a glass vial and incubated at 37° C. for 12-18 h to equilibrate. An aqueous phase consisting of 5.6 ml phosphate buffered saline (PBS, pH 7.4) was subsequently added to the lipid phase (tofacitinib was dissolved in PBS for the preparation of tofacitinib-containing formulations) and the formulation emulsified by ultrasonication with a Misonix XL 2020 ultrasonic processor (Misonix, Farmingdale, NY, USA) equipped with a 3.2-mm microprobe tip running at 30% of the maximal amplitude of 240 μm and a frequency of 20 kHz for 2 min at room temperature. Doses for administering to more than one animal can be prepared in one batch by suitably increasing the quantities given above. Drug/prodrug concentrations in all formulations were verified using HPLC-MS.
Male Sprague-Dawley (SD) rats were selected for the lymphatic transport studies. Rats (typically 240-320 g) were maintained on a standard diet and fasted overnight with free access to water prior to experiments.
Anesthetized rats were placed on a heated pad at 37° C. and cannulas inserted into the duodenum (for formulation administration and rehydration), mesenteric lymph duct (for lymph collection), and carotid artery (in cases where blood collection was conducted). Post-surgery, rats were re-hydrated for 0.5 h via intraduodenal infusion of normal saline at 2.8 mL/h. The lipid formulations were infused into the duodenum at 2.8 mL/h for 2 h after which, normal saline was infused at 2.8 mL/h for the remainder of the experiment. Lymph was continuously collected for up to 8 h into pre-weighed Eppendorf tubes containing 10 μL of 1,000 IU/mL heparin. The collection tubes were changed hourly and lymph flow was measured gravimetrically. Aliquots of hourly lymph samples were stored at −20° C. prior to assay.
For most compounds, drug concentration in lymph is expressed as total drug and includes free drug and drug associated with different glycerides. Lymph samples were first treated with a lipase or other appropriate conditions to liberate free active agent prior to measurement of active agent levels in the lymph. Treatment with a lipase or other hydrolysis conditions liberates free active agent from any corresponding re-esterified glycerides. Porcine pancreatic lipase is appropriate for this purpose. Alternatively, hydrolysis with 0.5 M NaOH may be used.
For certain compounds, drug concentration was measured for the intact lipid prodrug specifically, without exposing the lymph samples to hydrolysis conditions.
Transport of compounds into lymph during each hourly collection period was calculated from the product of the volume of lymph collected and the measured concentrations in lymph. For fluorescent or fluorescently-labelled compounds, the concentrations of total compound may be measured by fluorescence spectroscopy without hydrolysis.
Table 5 summarizes lymphatic transport of total tofacitinib related compound (% of administered dose) following intraduodenal infusion to anaesthetised, mesenteric lymph-duct cannulated rats. Data are presented as mean±SD when n≥3 or mean± range when n=2. […]

[2] = system: plasma supplemented with lipoprotein lipase (LPL); assay: In vitro release of therapeutic agent from prodrugs in plasma supplemented with lipoprotein lipase; type: in vitro ADME; settings: rat and/or human plasma supplemented with LPL; for In vitro hydrolysis profile: conversion to monoglyceride form / In vitro hydrolysis profile: further conversion products: 37° C., 0-180 min
Procedure: In order to probe the release of free drug from TG prodrugs in the systemic circulation, prodrugs are incubated with plasma (rat, mouse, dog, pig or human) supplemented with lipoprotein lipase (LPL, 200 IU/ml). LPL is a key enzyme required for the hydrolysis of lipoprotein associated TG in the systemic circulation and is therefore expected to be a key contributor to lipolysis of the re-esterified drug-TG construct in plasma, largely via liberation of fatty acids in the sn-1 and the sn-3 position of the TG-mimetic, prior to drug release from the 2′ position via esterase hydrolysis. […] is tethered to the luminal surface of vascular endothelial cells under physiological conditions. In the current in vitro studies, plasma is therefore supplemented with LPL to better reflect the in vivo situation.
To start hydrolysis, 10 μl of LPL solution (10,000 IU/ml) was added to a mixture of 10 μl of prodrug solution (1 mg/ml dissolved in acetonitrile) and 500 μl of blank plasma. The mixture was incubated at 37° C. Samples (20 μl) of the incubation solution were taken at 0, 5, 15, 30, 60, 90, 120 and 180 minutes post-incubation and added to 180 μl of MeCN to stop lipolysis. The mixture was vortexed and centrifuged at 4500×g for 5 minutes to precipitate proteins prior to analysis. The supernatant was analyzed by HPLC-MS/MS for the potential products (MG form, acid form, and free drug) of prodrug hydrolysis.
The in vitro hydrolysis profile of selected prodrug compounds was determined in rat and/or human plasma supplemented with LPL. […] The acid intermediate was not observed for prodrug I-5. The acid intermediates are believed to have the structures shown in Table 6, below, based on HPLC-MS data.

[3] = molecular target: T1, porcine pancreatic lipase (Sus scrofa, UniProt P00591); assay: In vitro hydrolysis by porcine pancreatic lipase in simulated intestinal micellar solution; type: in vitro ADME; settings: for In vitro hydrolysis: acid intermediates: HPLC-MS; for In vitro hydrolysis: conversion to monoglyceride form / In vitro hydrolysis: fate of the monoglyceride: simulated intestinal micellar solution, 37° C., 0-180 min
T1 construct: dispersion of 1 g porcine pancreatin in 5 ml of lipolysis buffer; from tissue; host or cells: porcine pancreatin (pancreas extract), supernatant after centrifugation
T1 sequence (P00591 1-450): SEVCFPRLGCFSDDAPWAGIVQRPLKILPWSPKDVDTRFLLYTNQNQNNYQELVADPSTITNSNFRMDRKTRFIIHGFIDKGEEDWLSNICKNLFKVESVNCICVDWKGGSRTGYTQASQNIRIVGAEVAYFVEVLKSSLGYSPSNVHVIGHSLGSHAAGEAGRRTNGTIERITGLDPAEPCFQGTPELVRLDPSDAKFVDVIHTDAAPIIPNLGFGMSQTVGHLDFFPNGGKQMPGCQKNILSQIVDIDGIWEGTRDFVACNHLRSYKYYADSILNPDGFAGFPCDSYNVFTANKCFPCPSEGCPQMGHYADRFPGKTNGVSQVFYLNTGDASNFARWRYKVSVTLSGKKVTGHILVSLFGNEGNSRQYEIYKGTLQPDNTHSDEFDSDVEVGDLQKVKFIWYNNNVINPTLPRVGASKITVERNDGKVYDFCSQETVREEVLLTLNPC
T1 sequence (P02703 23-112 partner): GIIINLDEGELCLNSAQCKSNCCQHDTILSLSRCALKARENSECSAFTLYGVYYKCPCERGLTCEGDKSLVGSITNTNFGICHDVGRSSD
Procedure: Hydrolysis of test compounds in vitro was performed via incubation with porcine pancreatic lipase. This provides a more reproducible source of pancreatic enzymes, facilitates enhanced experimental throughput, and is also a greater challenge than collected rat enzymes (as described below, since enzyme activity in rat intestinal fluid is low). Briefly, pancreatic lipase solution was prepared prior to the hydrolysis experiment by dispersion of 1 g porcine pancreatin in 5 ml of lipolysis buffer and 16.9 μL of 0.5 M NaOH. The suspension was mixed well and centrifuged at 3500 rpm for 15 minutes at 5° C. to provide a supernatant. An amount of 1000 mL of lipolysis buffer was prepared with 0.474 g of tris-maleate (2 mM), 0.206 g of CaCl2·H2O (1.4 mM) and 8.775 g of NaCl (150 mM) adjusted with NaOH to pH 6.5. To assess the potential for prodrug hydrolysis in the intestine, 20 μL of prodrug solution (1 mg/mL dissolved in acetonitrile), 900 μL of simulated intestinal micellar solution [prepared with 0.783 g of NaTDC (3 mM) and 0.291 g of phosphatidyl choline (0.75 mM) in 500 mL lipolysis buffer] and 100 μL of enzyme solution were incubated at 37° C. 20 μL samples of the incubation solution were taken at 0, 5, 10, 15, 30, 60, 90, 120 and 180 minutes post incubation and added to 180 μL of MeCN to stop lipolysis. The mixture was vortexed and centrifuged at 5000 rpm for 5 minutes to precipitate proteins prior to analysis. The supernatant was analyzed by HPLC-MS for residual compound concentrations, and the potential products of compound hydrolysis analyzed.
On incubation with digestive enzymes, the monoglyceride forms of the prodrugs are formed very rapidly. The stability in simulated intestinal conditions is therefore better assessed by the stability of the monoglyceride form that is generated by the initial digestion process. The monoglyceride form should remain intact to be absorbed and re-esterified in the enterocyte prior to entry into the lymphatics. A comparison of the stability profiles of the monoglyceride forms of test compounds during in vitro incubation with porcine pancreatic lipase (or freshly collected rat bile and pancreatic fluid (BPF), as described below) was used to evaluate the influence of linker structure on the stability of the monoglyceride intermediates.

SMILES	Cumulative lymphatic transport % dose [1]	In vitro hydrolysis profile: conversion to monoglyceride form [2]	In vitro hydrolysis profile: further conversion products [2]	In vitro hydrolysis: acid intermediates [3]	In vitro hydrolysis: conversion to monoglyceride form [3]	In vitro hydrolysis: fate of the monoglyceride [3]	In vitro hydrolysis profile: acid intermediate ([2]; HPLC-MS)
CCCCCCCCCCCCCCCC(=O)OCC(COC(=O)CCCCCCCCCCCCCCC)OC(=O)CC(C)CCCCCCCC(C)C(=O)n1ccc2c(N(C)[C@H]3CN(C(=O)CC#N)CC[C@H]3C)ncnc21 (stereo partly drawn) [I-6, 2-((12-(4-(((3R,4R)-1-(2-cyanoacetyl)-4-methylpiperidin-3-yl)(methyl)amino)-7H-pyrrolo[2,3-d]pyrimidin-7-yl)-3,11-dimethyl-12-oxododecanoyl)oxy)propane-1,3-diyl dipalmitate]	B (lymphatic transport assay result between 1% and 10% (1%-10%))	rapidly converted into their monoglyceride form	further conversion to tofacitinib and an acid intermediate	not observed	rapidly converted to the prodrug's monoglyceride form	converted to free parent tofacitinib over time	
CCCCCCCCCCCCCCCC(=O)OCC(COC(=O)CCCCCCCCCCCCCCC)OC(=O)CC(C)CC(=O)OC(C)n1ccc2c(N(C)[C@H]3CN(C(=O)CC#N)CC[C@H]3C)ncnc21 (stereo partly drawn) [I-5, 1-(1,3-bis(palmitoyloxy)propan-2-yl) 5-(1-(4-(((3R,4R)-1-(2-cyanoacetyl)-4-methylpiperidin-3-yl)(methyl)amino)-7H-pyrrolo[2,3-d]pyrimidin-7-yl)ethyl) 3-methylpentanedioate]	D (lymphatic transport assay result of less than 0.05% (<0.05%))	rapidly converted into their monoglyceride form	further conversion to tofacitinib and an acid intermediate	not observed	rapidly converted to the prodrug's monoglyceride form	converted to free parent tofacitinib over time	not observed
